Data from patent publication US9181290B2, “Inhibition of biofilm formation by 1,2,3,4,6-penta-O-galloyl-D-glucopyranose” (CHANG GUNG UNIVERSITY, priority 2011, dated 2015).
“Also recorded” adds a separate entry of the source.

Key:
[1] = system: S. aureus SA113 (ATCC 35556); test: Bacterial growth (A578) and biofilm formation (crystal violet, A595) in 96-well polystyrene microtiter plates; type: cell-based, Staphylococcus aureus; conditions: for Biofilm (%) / Growth (%): 6 hours after seeding, control = 100%, mean ± SD
Protocol: (§1) An overnight bacterial culture was 200-fold diluted with TSBg, and a 200 μL aliquot of the diluted culture was seeded into each well of 96-well polystyrene microtiter plates and incubated at 37° C. for a designated period of time. Cell growth was determined by measuring the absorbance at 578 nm (A578) with a microtiter plate reader (SpectraMax 340, Molecular Devices). After washing with PBS twice to remove suspended cells, the wells were stained with 0.1% (w/v) crystal violet in 10% ethanol and then treated with 30% acetic acid in dH2O, followed by detecting the absorbance at 595 nm (A595) with the microtiter plate reader to quantify the amount of biofilm formed on polystyrene surface.
An overnight culture of S. aureus SA113 was 200-fold diluted with TSBg, and a 200 μL aliquot of the diluted culture was seeded into each well of 96-well microtiter plates. Compounds purified from medicinal plants were added into each well at a designated concentration up to […]. At 6 hours after seeding, the amounts of biofilms formed in the wells were determined by crystal violet staining as described above. Cells treated with either distilled water or DMSO were used as a control. The amount of biofilm formation by the control group was set as 100%. Each experiment was repeated at least three times, with n=6 for each sample tested. The concentrations of compounds that inhibited 50% biofilm formation (IB50) were calculated based on logistic regression analysis results. Besides, the biofilm formation inhibition rate of a PGG-treated group was calculated using the following equation (1). Biofilm formation inhibition rate(%)=[(A−B)/A]×100 (1) wherein:
In the wells of 96-well microtiter plates, S. aureus SA113 cells were cultured in TSBg broth in the presence of either β-PGG or α-PGG at different amounts (0, 1 and 10 μM). After incubation at 37° C. for 6 hrs, the cell density was determined by measuring the absorbance at 578 nm (A578), and the amounts of biofilm were quantified by crystal violet staining, with the amount of biofilm formed by untreated bacterial cells being set as 100%. Each experiment was repeated three times, with n=6 for each sample tested.
(§2) To determine the effect(s) of (β-PGG upon bacterial growth and biofilm formation, β-PGG in various amounts (final concentration: 0, 1.56, 3.13, 6.25, 12.5, 25 and 50 μM) was added into the culture of S. aureus SA113 during seeding into the wells of polystyrene microtiter plates, followed by incubation at 37° C. for 6 hrs or 24 hrs. Cell growth was determined by measuring the absorbance at 578 nm, and the amount of biofilm formed on polystyrene surface was determined at 595 nm after crystal violet staining. In addition to polystyrene surface, the effect of β-PGG in inhibiting biofilm formation on polycarbonate surface was also examined according to the procedures as described in the preceding section entitled “Materials and methods.”

[2] = system: S. aureus SA113 (ATCC 35556); test: Biofilm formation on polycarbonate discs (crystal violet); type: cell-based; conditions: Staphylococcus aureus, ATCC35556, 6 hours, read-out: inhibition of biofilm formation on polycarbonate surface
Protocol: To quantify the amount of biofilm formed on polycarbonate surface, a 13-mm-diameter polycarbonate disc (Thermanox, Nalgene Nunc International, Rochester, N.Y., USA) was placed in a well of a 24-well microtiter plate, followed by the addition of 1 mL aliquot of the diluted bacterial culture. After incubation at 37° C. for a designated period of time, viable cells were washed off the surface of the polycarbonate disc with PBS and counted as described above, while the PBS-washed polycarbonate disc was subjected to crystal violet staining for biofilm quantification as described above.
as §2

293T cells = test: Cell viability assay (MTT); type: cell-based, human
Protocol: (§3) Human HepG2 cells (ATCC HB-8065) and 293T cells (ATCC CRL-11268) were cultured in Dulbecco's modified Eagle's medium (DMEM) supplemented with 10% (v/v) fetal calf serum. Human MRC-5 cells (ATCC CCL171) and HEp-2 cells (ATCC CCL-23) were cultured in Eagle's minimum essential medium (MEM) supplemented with 10% fetal calf serum. These four human cell lines were seeded into 24-well polystyrene tissue culture plates at a cell density of 1×10^5 cells/500 μL medium per well, respectively. After incubation at 37° C. for 24 hrs, β-PGG was added into each well in various amounts (0, 6.25, 12.5, 25 and 50 μM). After 24 hr treatment of β-PGG, toxicity of β-PGG to these human cell lines was determined using the 3-(4,5-dimethylthiazol-2-yl)-2,5-diphenyltetrazolium bromide (MTT) method (Xiangshu Piao et al. (2008), supra). Additionally, toxicity of β-PGG to the 293T cells was also determined in medium containing 0% and 2% fetal calf serum. Cells treated with DMSO were used as a negative control.

HEp-2 cells = test: Cell viability assay (MTT); type: cell-based, human; conditions: concentrations below 50 μM, 24 hr treatment, 10% fetal calf serum
Protocol: as §3

HepG2 cells = test: Cell viability assay (MTT); type: cell-based, human; conditions: concentrations below 50 μM, 24 hr treatment, 10% fetal calf serum
Protocol: as §3

MRC-5 cells = test: Cell viability assay (MTT); type: cell-based, human; conditions: concentrations below 50 μM, 24 hr treatment, 10% fetal calf serum
Protocol: as §3

S. carnosus TM300 = test: Growth (A578) and biofilm (A595) in polystyrene plates; type: cell-based; conditions: 12.5 μM β-PGG, 6 hr
Protocol: (§4) In addition to the above S. aureus strains, S. epidermidis ATCC 35547 and S. epidermidis RP62A (ATCC 35984) were also studied for comparison.
as §1

[3] = system: S. epidermidis ATCC 35547; test: as above; type: cell-based, Staphylococcus epidermidis; conditions: 12.5 μM β-PGG, 6 hr
Protocol: as §4, §1

[4] = system: S. epidermidis RP62A (ATCC 35984); test: as above; type: cell-based, Staphylococcus epidermidis
Protocol: as §4, §1

**Q.** Which results are given for `O=C(OC[C@H]1O[C@@H](OC(=O)c2cc(O)c(O)c(O)c2)[C@H](OC(=O)c2cc(O)c(O)c(O)c2)[C@@H](OC(=O)c2cc(O)c(O)c(O)c2)[C@@H]1OC(=O)c1cc(O)c(O)c(O)c1)c1cc(O)c(O)c(O)c1` [β-PGG, 1,2,3,4,6-penta-O-galloyl-β-D-glucopyranose]?
**A.** viability of S. aureus SA113 cells (A578) ([1]; 1 μM and 10 μM, 6 hour incubation (anomer comparison)): did not affect the viability; reduction of biofilm formation ([1]; 1 μM, 6 hour incubation (anomer comparison)): 10%; killing of S. aureus SA113 ([1]; 10 μM): did not kill S. aureus SA113; reduction of biofilm formation ([1]; 10 μM, 6 hour incubation (anomer comparison)): 65%; Biofilm (%) ([1]; 10 μM): 5 ± 1%; Growth (%) ([1]; 10 μM): 109 ± 8%; Growth (A578) ([1]; 12.5 μM β-PGG, 6 hr, 0 μM: 0.68 ± 0.02): 0.65 ± 0.03; Biofilm (A595) ([1]; 12.5 μM β-PGG, 6 hr, 0 μM: 6.31 ± 0.34): 0.26 ± 0.28; reduction of biofilm formation ([1]; 100 μM, 6 hours): 98%; Biofilm (%) ([1]; 100 μM): 2 ± 0%; Growth (%) ([1]; 100 μM): 69 ± 5 %; amounts of biofilm on polystyrene surface after 24 hr incubation ([1]; 24 hrs): approximately equal to those observed after 6 hr incubation; inhibition at 6.25 µM ([1]; Staphylococcus aureus, ATCC35556, 6.25 μM, 6 hrs, read-out: inhibition of biofilm formation on polystyrene surface): 93%; inhibition at 10 µM ([1]; Staphylococcus aureus, ATCC35556, 10 μM, 6 hr incubation (screening)): 95%; inhibition at 12.5 µM ([1]; Staphylococcus aureus, ATCC35556, 12.5 μM, 6 hrs, read-out: inhibition of biofilm formation on polystyrene surface): 96%; inhibition at 25 µM ([1]; Staphylococcus aureus, ATCC35556, 25 μM, 6 hrs, read-out: inhibition of biofilm formation on polystyrene surface): 97%; inhibition at 100 µM ([1]; Staphylococcus aureus, ATCC35556, 100 μM, 6 hours): 31%; IC50 ([1]; Staphylococcus aureus, ATCC35556, 6 hours, logistic regression, read-out: IB50 (concentration that inhibited 50% biofilm formation)): 3.6 µM; viability of S. aureus SA113 ([1]; concentrations below 50 μM, 6 hours incubation): did not affect the viability; also recorded: did not kill S. aureus SA113 cells; Cell Growth (%) ([1]; growth compared to untreated control at the concentration of IB50): 100%; inhibition at 6.25 µM ([2]; 6.25 μM): 75%; inhibition at 12.5 µM ([2]; 12.5 μM): 96%; inhibition at 25 µM ([2]; 25 μM): 99%; cell viability (MTT) (293T cells; concentrations below 50 μM, 24 hr treatment, 10% fetal calf serum): did not affect the viability; influence of serum concentration on toxicity (293T cells; medium with 2% or 0% fetal calf serum): no influence upon the toxicity; cell viability (MTT) (HEp-2 cells): did not affect the viability; cell viability (MTT) (HepG2 cells): did not affect the viability; cell viability (MTT) (MRC-5 cells): did not affect the viability; Biofilm (A595) (S. carnosus TM300; 0 μM: 0.12 ± 0.01, non-biofilm negative control strain): 0.10 ± 0.01; Growth (A578) (S. carnosus TM300; 0 μM: 0.69 ± 0.02): 0.70 ± 0.01; Growth (A578) ([3]; 0 μM: 0.50 ± 0.01): 0.42 ± 0.01; Biofilm (A595) ([3]; 0 μM: 1.42 ± 0.09): 0.15 ± 0.11; reduction of biofilm formation ([4]; 12.5 μM): 35%; Growth (A578) ([4]; 12.5 μM β-PGG, 6 hr, 0 μM: 0.57 ± 0.09): 0.56 ± 0.09; Biofilm (A595) ([4]; 12.5 μM β-PGG, 6 hr, 0 μM: 6.43 ± 0.04): 4.18 ± 0.54
